Article PMC10797628
Several values for one entry are separate records, joined by “and”; a condition that tells them apart may be missing. Equal values may be shown once. Read-outs that look alike come from different tables or passages of the source.

Columns and labels:
[1] = molecular target: T1, T7.39N 5-HT1D receptor (Homo sapiens, UniProt P28221, T342N); assay: Radioligand binding, T7.39N 5-HT1D
Procedure: (§5) 48 hours after transfection with the desired receptor construct, cells were isolated for saturation and competition binding assays as previously described.[47],[48],[57] Saturation and competition radioligand binding assays were conducted in an assay buffer consisting of 50 mM Tris HCl, 10 mM MgCl2, and 0.1 mM EDTA in filtered deionized water. […] Briefly, 5–10 μg of the receptor protein, as determined by a Thermo Fisher Pierce BCA protein assay kit, was incubated with 8 concentrations of radioligand in triplicate to determine total binding. […] Nonspecific binding was determined as above for saturation assays.
(§6) For radioligand binding data, nonspecific binding was subtracted from the total binding to get specific binding. Saturation binding data was fit to the “binding saturation-specific binding with hill slope” model. Competition binding data were fit to the “binding competition-one-site fit Ki” non-linear regression model and transformed to pKi values, reported as mean ± SD.
(§7) is 50 mM Tris HCl, 10 mM MgCl2 and 0.1 mM EDTA in filtered deionized water.

[2] = molecular target: T2, human 5-HT1B receptor (Homo sapiens, UniProt P28222); assay: Radioligand binding (saturation and competition), WT 5-HT1B; conditions: for higher affinity at 5-HT1B over 5-HT1A receptors: affinity ratio
T2 construct: host or cells: HEK293T
T2 sequence (P28222 whole entry): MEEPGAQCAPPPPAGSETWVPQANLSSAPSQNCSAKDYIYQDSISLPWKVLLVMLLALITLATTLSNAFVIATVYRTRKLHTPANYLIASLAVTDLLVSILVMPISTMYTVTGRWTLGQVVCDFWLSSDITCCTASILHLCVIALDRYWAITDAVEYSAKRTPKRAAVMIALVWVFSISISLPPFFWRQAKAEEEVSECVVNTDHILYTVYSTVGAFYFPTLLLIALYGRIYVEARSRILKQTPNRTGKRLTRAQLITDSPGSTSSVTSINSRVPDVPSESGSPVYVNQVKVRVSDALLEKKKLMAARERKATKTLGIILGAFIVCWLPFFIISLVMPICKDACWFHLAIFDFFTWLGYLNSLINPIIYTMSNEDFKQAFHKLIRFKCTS

[3] = molecular target: T3, human 5-HT1A receptor (Homo sapiens, UniProt P08908); assay: cAMP accumulation (LANCE Ultra TR-FRET) in HEK293T cells, WT 5-HT1A; assay type: cell-based; conditions: for Emax: HEK-293T; for EC50: cAMP accumulation, HEKt cells, mean ± SD
T3 construct: host or cells: HEK293T
T3 sequence (P08908 1-422): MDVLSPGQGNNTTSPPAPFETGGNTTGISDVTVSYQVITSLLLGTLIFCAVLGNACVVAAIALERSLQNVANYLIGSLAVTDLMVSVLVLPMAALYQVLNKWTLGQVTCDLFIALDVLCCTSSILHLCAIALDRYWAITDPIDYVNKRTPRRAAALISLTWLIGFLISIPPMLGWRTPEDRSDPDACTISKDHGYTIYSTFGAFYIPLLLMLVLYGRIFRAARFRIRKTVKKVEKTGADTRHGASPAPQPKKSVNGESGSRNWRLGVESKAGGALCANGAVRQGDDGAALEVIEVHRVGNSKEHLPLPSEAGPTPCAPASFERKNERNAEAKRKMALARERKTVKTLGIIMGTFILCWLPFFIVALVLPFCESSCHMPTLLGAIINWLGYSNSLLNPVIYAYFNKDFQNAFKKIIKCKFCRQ
Procedure: (§1) Briefly, cells transfected with the desired receptor construct and compounds were incubated in the dark for 90 min at 37 °C. After incubation, cAMP detection reagents were added, and TR-FRET was used to quantify the cAMP produced.
(§2) The functional activity of compounds was determined by stimulating cells expressing the desired receptor with FSK and test compound in parallel with 12 known concentrations of cAMP. The known concentrations of cAMP were used to create a standard curve for each experiment that was used to interpolate the unknown values of cAMP in wells with test compounds. […] The EC50 and EMAX values were determined using the “dose response – log[agonist] vs response (three parameter)” nonlinear regression model in Prism and transformed to pEC50 values, reported as mean ± SD.
(§3) Summary of functional assay conditions at various 5-HT1 receptor point mutation constructs.

[4] = molecular target: T1, T7.39N 5-HT1D receptor; assay: cAMP accumulation in HEK293T cells, T7.39N 5-HT1D; assay type: cell-based; design: host or cells: HEK293T; conditions: point-mutated receptor, 3 independent experiments, read-out: pEC50 5-HT1D Receptor N7.39T (converted)
Procedure: as §1, §2
(§4) Cell Type Receptor Cell Density [Forskolin] Incubation time
as §3

[5] = molecular target: T4, V45.52I 5-HT1B receptor (Homo sapiens, UniProt P28222, V201I); assay: Radioligand binding, V45.52I 5-HT1B
T4 sequence (P28222 whole entry V201I): as the sequence (P28222 whole entry) above, with V201I counted along it
Procedure: as §5, §6, §7

[6] = molecular target: T2, human 5-HT1B receptor; assay: cAMP accumulation (LANCE Ultra TR-FRET) in HEK293T cells, WT 5-HT1B; assay type: cell-based; conditions: for EC50: cAMP accumulation, HEKt cells, mean ± SD; for Emax: HEK-293T
Procedure: as §1, §2, §3

[7] = molecular target: T7.39N 5-HT1B receptor (Homo sapiens, UniProt P28222, T355N); assay: Radioligand binding, T7.39N 5-HT1B
Sequence of T7.39N 5-HT1B receptor (P28222 whole entry T355N): as the sequence (P28222 whole entry) above, with T355N counted along it
Procedure: as §5, §6, §7

[8] = molecular target: Y5.38A 5-HT1D receptor (Homo sapiens, UniProt P28221, Y197A); assay: cAMP accumulation in HEK293T cells, Y5.38A 5-HT1D; assay type: cell-based; design: host or cells: HEK293T; conditions: point-mutated receptor, 3 independent experiments, read-out: pEC50 5-HT1D Receptor Y5.38A (converted)
Sequence of Y5.38A 5-HT1D receptor (P28221 whole entry Y197A): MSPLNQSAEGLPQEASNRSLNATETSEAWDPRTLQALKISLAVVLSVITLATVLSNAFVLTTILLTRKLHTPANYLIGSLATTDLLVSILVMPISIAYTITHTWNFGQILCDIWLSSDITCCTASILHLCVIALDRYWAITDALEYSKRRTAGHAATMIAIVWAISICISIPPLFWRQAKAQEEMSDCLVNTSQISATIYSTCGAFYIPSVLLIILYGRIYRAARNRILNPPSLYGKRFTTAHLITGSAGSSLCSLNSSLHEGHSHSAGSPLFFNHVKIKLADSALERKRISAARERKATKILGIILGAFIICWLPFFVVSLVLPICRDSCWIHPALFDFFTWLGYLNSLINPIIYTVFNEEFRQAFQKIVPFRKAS
Procedure: as §1, §2, §3

[9] = molecular target: V45.52I 5-HT1D receptor (Homo sapiens, UniProt P28221, V190I); assay: Radioligand binding, V45.52I 5-HT1D
Sequence of V45.52I 5-HT1D receptor (P28221 whole entry V190I): as the sequence (P28221 whole entry Y197A) above, with V190I, A197Y counted along it
Procedure: as §5, §6, §7

[10] = molecular target: T4, V45.52I 5-HT1B receptor; assay: cAMP accumulation in HEK293T cells, V45.52I 5-HT1B; assay type: cell-based; design: mutated in house (Quikchange II) HTR01B0000; host or cells: HEK293T; conditions: point-mutated receptor, 3 independent experiments, read-out: pEC50 5-HT1B Receptor V45.52I (converted)
Procedure: as §1, §2, §4, §3

[11] = molecular target: T5, Y5.38F 5-HT1B receptor (Homo sapiens, UniProt P28222, Y208F); assay: cAMP accumulation in HEK293T cells, Y5.38F 5-HT1B; assay type: cell-based; conditions: point-mutated receptor, 3 independent experiments, read-out: pEC50 5-HT1B Receptor Y5.38F (converted)
T5 construct: host or cells: HEK293T
T5 sequence (P28222 whole entry Y208F): as the sequence (P28222 whole entry) above, with Y208F counted along it
Procedure: as §1, §2, §4, §3

[12] = molecular target: T6, human 5-HT1F receptor (Homo sapiens, UniProt P30939); assay: Radioligand binding (saturation and competition), WT 5-HT1F
T6 construct: host or cells: HEK293T
T6 sequence (P30939 1-366): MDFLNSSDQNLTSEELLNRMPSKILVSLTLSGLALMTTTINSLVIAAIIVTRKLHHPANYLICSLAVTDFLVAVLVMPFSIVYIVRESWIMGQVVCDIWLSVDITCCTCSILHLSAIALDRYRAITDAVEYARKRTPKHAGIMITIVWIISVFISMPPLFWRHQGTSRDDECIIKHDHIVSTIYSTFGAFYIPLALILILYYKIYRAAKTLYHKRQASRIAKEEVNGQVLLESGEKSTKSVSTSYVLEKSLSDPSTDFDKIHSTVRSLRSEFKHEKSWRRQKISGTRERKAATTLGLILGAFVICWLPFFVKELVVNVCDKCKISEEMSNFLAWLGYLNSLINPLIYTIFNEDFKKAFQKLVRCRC

[13] = molecular target: T7, human 5-HT1D receptor (Homo sapiens, UniProt P28221); assay: Radioligand binding (saturation and competition), WT 5-HT1D; conditions: for higher affinity at 5-HT1D over 5-HT1A receptors: affinity ratio
T7 construct: host or cells: HEK293T
T7 sequence (P28221 whole entry): as the sequence (P28221 whole entry Y197A) above, with A197Y counted along it

[14] = molecular target: S5.42A 5-HT1B receptor (Homo sapiens, UniProt P28222, S212A); assay: cAMP accumulation in HEK293T cells, S5.42A 5-HT1B; assay type: cell-based; design: host or cells: HEK293T; conditions: point-mutated receptor, 3 independent experiments, read-out: pEC50 5-HT1B Receptor S5.42A (converted)
Sequence of S5.42A 5-HT1B receptor (P28222 whole entry S212A): as the sequence (P28222 whole entry) above, with S212A counted along it
Procedure: as §1, §2, §4, §3

[15] = molecular target: Y5.38F 5-HT1D receptor (Homo sapiens, UniProt P28221, Y197F); assay: cAMP accumulation in HEK293T cells, Y5.38F 5-HT1D; assay type: cell-based; design: host or cells: HEK293T; conditions: point-mutated receptor, 3 independent experiments, read-out: pEC50 5-HT1D Receptor Y5.38F (converted)
Sequence of Y5.38F 5-HT1D receptor (P28221 whole entry Y197F): as the sequence (P28221 whole entry Y197A) above, with A197F counted along it
Procedure: as §1, §2, §3

[16] = read-out: 5-HT1A EMAX (%), WT receptor, normalized to basal (0%) and 10 μM 5-CT (100%)
[17] = read-out: 5-HT1B EMAX (%), WT receptor, normalized to basal (0%) and 10 μM 5-CT (100%)
[18] = Affinity (pKi ± SD) 5-HT1D, WT receptor, [^3H]5-CT competition, mean ± SD

T1 sequence (P28221 whole entry T342N): as the sequence (P28221 whole entry Y197A) above, with A197Y, T342N counted along it

SMILES	Ki [1]	higher affinity at 5-HT1B over 5-HT1A receptors [2]	Emax [3, 16]	EC50 [4]	Ki [5]	EC50 ([6]; 5-HT1B pEC50, WT receptor)	Emax [6, 17]	Ki [7]	EC50 [8]	Ki [9]	EC50 [10]	EC50 [11]	Ki [12]	Ki [13, 18]	higher affinity at 5-HT1D over 5-HT1A receptors [13]	EC50 [14]	EC50 [15]	further results
CN(C)[C@H]1CCc2c(cccc2-c2ccccc2F)C1 [(S)-FPT]	10.7 nM	2 fold	90 ± 2%	14.1 nM	1.91 nM	0.49 nM	> 90%	7.41 nM	1.45 nM	1.05 nM	0.776 nM	0.813 nM	> 10000 nM	1.07 nM	4 fold	1.02 nM	1.55 nM	5-HT1B EMAX (%) ([6]; WT receptor, normalized to basal (0%) and 10 μM 5-CT (100%)): 100 ± 2%
Fc1ccccc1-c1cccc2c1CC[C@H](N1CCCC1)C2 [(S)-PFPT]	4.17 nM	–	–	18.6 nM	14.5 nM	–	–	5.89 nM	191 nM	14.8 nM	51.3 nM	55 nM	–	–	–	316 nM	240 nM	Ki ([2]; read-out: Affinity (pKi ± SD) 5-HT1B (converted)): 12 nM; Emax ([3]; read-out: 5-HT1A EMAX (%)): 100 ± 2%; EC50 ([3]; WT receptor, read-out: 5-HT1A pEC50 (converted)): 1.66 nM; higher functional potency at 5-HT1A over 5-HT1B and 5-HT1D receptors ([3]; cAMP potency ratio): ~40 fold and 35 fold; Emax ([6]; read-out: 5-HT1B EMAX (%)): 99 ± 2%; EC50 ([6]; WT receptor, read-out: 5-HT1B pEC50 (converted)): 56.2 nM; Ki ([12]; WT receptor, [^3H]5-HT competition, mean ± SD, read-out: Affinity (pKi ± SD) 5-HT1F (converted)): > 10000 nM; Ki ([13]; read-out: Affinity (pKi ± SD) 5-HT1D (converted)): 13.5 nM
CN(C)[C@H]1CCc2c(cccc2-c2cccc3ccccc23)C1 [(S)-NAP]	1.07 nM	10 fold	72 ± 4%	10 nM	41.7 nM	34.7 nM	30 ± 4%	6.46 nM	288 nM	37.2 nM	224 nM	35.5 nM	5370 nM	0.832 nM	70 fold	35.5 nM	11.2 nM	Ki ([2]; Affinity (pKi ± SD) 5-HT1B, WT receptor, [^3H]5-CT competition, mean ± SD): 4.57 nM; EC50 ([3]; 5-HT1A pEC50, WT receptor): 389 nM; higher functional potency at 5-HT1B over 5-HT1A receptors ([6]; cAMP potency ratio): about 10 fold
